This note sets out measurements from publication PMC7457533, “Characterization of thrombin/factor Xa inhibitors in Rhizoma Chuanxiong through UPLC-MS-based multivariate statistical analysis” (Chinese Medicine, 2020).

The assay has as its target T1, thrombin (THR) (Homo sapiens, UniProt P00734).
T1 construct: gene F2
Kind of assay: capillary electrophoresis immobilized enzyme microreactor, S-2238; percent inhibition at […]. The class given is biochemical. The note with it: read-out: Inhibition percentage (%).

One may read the inhibition as the percentage by which the read-out fell short of the control.

Each structure is given as a SMILES string.

With `CCCCC1OC(=O)C2=C1CCC=C2` (centres unmarked) [a, Senkyunolide A], the inhibition at 500 µM is 41.9 ± 1.84%.

As for `CCC/C=C1\OC(=O)C2=C1CCC=C2` [d, Z-ligustilide], the inhibition at 500 µM came out at 36.9 ± 2.37%.
